In US10196357B2, “Biaryl compositions and methods for modulating a kinase cascade” (Athenex, Inc., priority 2007, dated 2019):
Several values for one entry are separate records, joined by “and”; a condition that tells them apart may be missing. Equal values may be shown once.

Assays:
FAK Y397 = test: FAK autophosphorylation in cells; format: cell-based; conditions: c-Src527F/NIH3T3 cells
Experimental: HT29 (colon cancer) and c-Src527F/NIH-3T3 (Src transformed) cell lines were treated with KX2-391 or with AstraZeneca's ATP competitive Src inhibitor AZ28. AZ28 serves as a positive comparator to show what a validated Src inhibitor should do in these assays. After treatment with compound, cells were lysed, subjected to PAGE and probed with a battery of antibodies. […] In addition, off-target protein phosphorylation was also investigated. Further, induction of apoptosis was evaluated via Caspase 3 cleavage. Multiple doses of each compound were tested because the trends in response to increasing drug concentration are the most reliable indicator of activity.
The same range of multiples of the GI50 for AZ28 in these two cell lines was run as a comparison.
FAK Y397 is mainly a FAK autophosphorylation site and only a poor Src transphorylation site. AZ28 is […] a potent FAK inhibitor (see isolated enzyme data in Table 8). However, no inhibition of FAK autophosphorylation in c-Src527F/NIH3T3 cells is seen with KX-391.

U87 = test: brain tumor cell growth inhibition, U87; format: cell-based, Human; conditions: U87, glioblastoma; astrocytoma; read-out: IC50 (title: GI50)
SKOV-3 (Ovarian) = test: growth inhibition (BrdU), SKOV-3; format: cell-based, Human; conditions: SKOV-3 (Ovarian) cells
Excerpt: (§1) Growth Inhibition. […] T1 values≤T0 values were designated as T, cytotoxicity.

SK-N-MC = test: brain tumor cell growth inhibition, SK-N-MC; format: cell-based, Human; conditions: neuroepithelioma, read-out: IC50 (title: GI50)
COLO-320DM = test: MTT growth inhibition, Dasatinib-resistant COLO-320DM; format: cell-based, human; conditions: 8.0×10^3 cells/well, […] FBS, 78 Hr
Experimental: Cell proliferation/growth inhibition was assessed using MTT colorimetric assay.
On Day 3, 10 μL MTT (5 mg/mL) was added to each well. Cells were then incubated in the presence of MTT for 4 hours at 37° C., appropriate CO2 conditions. After this incubation period, 90 μL 10% SDS(+HCl) was added to each well to lyse cells and solubilize formazan. Cells were then incubated overnight at 37° C., appropriate CO2 conditions.
The OD570 was measured using microplate reader. Growth inhibition curves and EC50/IC50 was determined using GraphPad Prism 4 statistical software.

L3.6pl cells = test: growth inhibition (BrdU), L3.6pl; format: cell-based, human; conditions: L3.6pl (Pancreas) cells, single agent
Excerpt: L3.6pl cells are previously described in Trevino et al. Am J Pathol.

K562 (CML) = test: growth inhibition (BrdU), K562; format: cell-based, Human; conditions: K562 (CML)
Excerpt: as §1

Bcr/Abl &245 = test: whole cell phosphorylation, Bcr/Abl; format: cell-based; conditions: whole cells
[1] = test system: lung cancer cell line A549; test: tumor growth inhibition, A549; format: cell-based, Human; conditions: A549 (Lung) cells
Excerpt: as §1

[2] = plasma exposure after oral administration; format: in vivo, male CD-1 mice; conditions: Male CD-1 mice
Experimental: Plasma concentrations were measured in mice after oral administration. All doses were formulated in purified water. Four groups of male CD-1 mice were dosed after an overnight fast and fed 4 hours post-dose. Dosing was as follows:
Protein was precipitated with 0.25 mL acetonitrile for plasma, 0.25 mL for brain. After centrifugation, supernatant was directly injected into an LC/MS system. The limit of quantitation was 1 ng/mL using a 50 μL aliquot for plasma and a 50 μL, aliquot for brain. The standard curve was 1 to 1,000 ng/mL for both plasma and brain. HPLC conditions were as follows:
HPLC System: Shimadzu SCL-10 System
• Analytical Column: Aquasil C18 5 μm 100×2 mm column. • Column Temperature: Ambient temperature • Autosampler Temperature: Ambient temperature • Mobile Phase A) 10 mM Ammonium formate in water (pH 4). • B) Acetonitrile. • Flow Rate: 0.6 mL/min • Injection Volume: 2 μL • Gradient:
• Mass Spectrometry Conditions were as follows: • Instrument: ABI Sciex API 4000 • Mode: ESI+ • Experiment: MRM (multiple reaction monitoring) • Transitions: KX2-391: m/z 432.4→114.2 (Rt=3.11 minute) • KX2-361: m/z 406.1→253.2 (Rt=3.33 minute)

[3] = body weight in GL261 glioma survival study; format: in vivo; conditions: C57BL/6 mice
Experimental: A brain tumor mouse xenograft study was conducted comparing KX2-361 and KX2-391 (KXO1) to Temodar®. The studies were conducted in C57BL/6 mice. GL261 glioma cells (1×10^5 in 5 μl DMEM) were implanted intracranial coordinates: bregma, lateral 2.0 mm, anterior 1.2 mm, 3.0 mm depth dura. Treatment was initiated 3 days post implantation. The groups were as follows (all doses in 100 μl H2O):
FIGS. 49A-E show the weight gain in each of the C57BL/6 mice in the different treatment groups. The average weight at endpoint for each of the treatment groups is shown below in Table 30. FIG. 50 is a graph showing the average weights over a 40-day period for each of the treatment groups.

[4] = single PO dose 10 mg/kg (Group 3), 0 hr
[5] = single PO dose 10 mg/kg (Group 3), 0.5 hr
[6] = single PO dose 10 mg/kg (Group 3), 1 hr
[7] = single PO dose 10 mg/kg (Group 3), 2 hr
[8] = single PO dose 10 mg/kg (Group 3), 5 hr
[9] = single PO dose 50 mg/kg (Group 4), 0 hr
[10] = single PO dose 50 mg/kg (Group 4), 0.5 hr
[11] = single PO dose 50 mg/kg (Group 4), 1 hr
[12] = single PO dose 50 mg/kg (Group 4), 2 hr
[13] = single PO dose 50 mg/kg (Group 4), 5 hr

O=C(Cc1ccc(-c2ccc(OCCN3CCOCC3)cc2)cn1)NCc1ccccc1 [KXO1]
FAK Y397 autophosphorylation (FAK Y397): no inhibition | IC50 (U87): 33.1 nM | GI50 (SKOV-3 (Ovarian)): 9.8 nM | IC50 (SK-N-MC): 5.8 nM | IC50 (COLO-320DM): 30 nM | IC80 (COLO-320DM): 80 nM | IC90 (COLO-320DM): 144 nM | GI50 (L3.6pl cells): 25 nM and 32 nM | GI50 (K562 (CML)): 13 nM | phosphorylation of Bcr/Abl &245 (Bcr/Abl &245): inhibited less potently | GI50 [1]: 9.4 nM and 13 nM

O=C(Cc1ccc(-c2ccc(N3CCOCC3)cc2)cn1)NCc1cccc(F)c1 [KX2-361]
KX2-361 Plasma Concentrations, Group A [2, 4]: BLQ (BLQ: Below Limit of Quantitation (1 ng/mL)) | KX2-361 Plasma Concentrations, Group B [2, 4]: BLQ (BLQ: Below Limit of Quantitation (1 ng/mL)) | KX2-361 Plasma Concentrations, Group C [2, 4]: BLQ (BLQ: Below Limit of Quantitation (1 ng/mL)) | KX2-361 Plasma Concentrations, Group A [2, 5]: 65.93 ng/mL | KX2-361 Plasma Concentrations, Group B [2, 5]: 217.56 ng/mL | KX2-361 Plasma Concentrations, Group C [2, 5]: 159.53 ng/mL | KX2-361 Plasma Concentrations, Group A [2, 6]: 284.09 ng/mL | KX2-361 Plasma Concentrations, Group B [2, 6]: 596.31 ng/mL | KX2-361 Plasma Concentrations, Group C [2, 6]: 398.35 ng/mL | KX2-361 Plasma Concentrations, Group A [2, 7]: 153.07 ng/mL | KX2-361 Plasma Concentrations, Group B [2, 7]: 118.96 ng/mL | KX2-361 Plasma Concentrations, Group C [2, 7]: 342.45 ng/mL | KX2-361 Plasma Concentrations, Group A [2, 8]: 2.63 ng/mL | KX2-361 Plasma Concentrations, Group B [2, 8]: 64.15 ng/mL | KX2-361 Plasma Concentrations, Group C [2, 8]: 53.18 ng/mL | KX2-361 Plasma Concentrations, Group A [2, 9]: BLQ (BLQ: Below Limit of Quantitation (1 ng/mL)) | KX2-361 Plasma Concentrations, Group B [2, 9]: BLQ (BLQ: Below Limit of Quantitation (1 ng/mL)) | KX2-361 Plasma Concentrations, Group C [2, 9]: BLQ (BLQ: Below Limit of Quantitation (1 ng/mL)) | KX2-361 Plasma Concentrations, Group B [2, 10]: 2316.91 ng/mL | KX2-361 Plasma Concentrations, Group C [2, 10]: 1587.18 ng/mL | KX2-361 Plasma Concentrations, Group A [2, 11]: 1805.19 ng/mL | KX2-361 Plasma Concentrations, Group B [2, 11]: 969.48 ng/mL | KX2-361 Plasma Concentrations, Group C [2, 11]: 3635.91 ng/mL | KX2-361 Plasma Concentrations, Group A [2, 12]: 475.13 ng/mL | KX2-361 Plasma Concentrations, Group B [2, 12]: 1710.13 ng/mL | KX2-361 Plasma Concentrations, Group C [2, 12]: 1709.02 ng/mL | KX2-361 Plasma Concentrations, Group A [2, 13]: 138.53 ng/mL | KX2-361 Plasma Concentrations, Group B [2, 13]: 252.81 ng/mL | KX2-361 Plasma Concentrations, Group C [2, 13]: 298.99 ng/mL | Average weight at endpoint ([3]; 15 mg/kg): 16.9 g | Average weight at endpoint ([3]; 30 mg/kg): 15.0 g
